Here are results for four sequences from PMC10473604 (bioRxiv, 2023).

The experiment has as its system HLA-A2. Kind of experiment: HLA-I binding assay with biotin-tagged HLA-A2 monomers. The arrangement: species or system human. The settings on record: in-silico predicted HLA-A2 binders not listed in Fig. 1G.
Regarding VMGDALGSV [ZnT8_245–253], the “HLA-A2 binding in vitro, in words” value is on record as “binding”. In the case of GIIYIIYKL [CVB1–2-3–4-5–6_1502–1510], the “HLA-A2 binding in vitro, in words” value is recorded as “did not confirm as binders”. For KLPDALSQM [CVB1_150–158], the “HLA-A2 binding in vitro, in words” value is on record as “did not confirm as binders”. In the case of VIASYPWPI [CVB1–2-3–5-6_2051–2059] it was “did not confirm as binders”.
